Measurements: patent US20140371254A1, “NOVEL TREATMENT OF GEFITINIB-RESISTANT NON-SMALL-CELL LUNG CANCER” (Macau University of Science and Technology, priority 2013, published 2014)

What was measured:
[1] = test system: H1975 (EGFR^L858R+T790M) cells; test: Apoptosis by Annexin V/PI staining with flow cytometry; type: cell-based, human
Procedure: Annexin V/PI staining is used to detect early and late stages of apoptosis. According to the manufacturer's protocol (BD Pharmingen), 5×10^5 cells of the treated and control groups were harvested, washed, and double-stained with Annexin V/PI for 15 min at room temperature in dark. Then apoptotic cells were quantitatively counted by a flow cytometer (BD FACSAria III). Early stage of apoptotic cells were stained with Annexin V-positive and PI-negative, while the late stage of apoptotic cells were stained with Annexin V-positive and PI-positive.
Example 6 further studies if the sanguinarine-induced apoptosis in H1975 (EGFR^L858R+T790M) is in caspases-dependent manner H1975 cells were treated with 1.25 μM sanguinarine and 1.25 μM sanguinarine together with 50 μM pan-caspase inhibitor for 24 hrs.

[2] = test system: H2228 (EML4-ALK fusion gene); conditions: method not stated; cited from earlier work
[3] = test system: EGFR; test: Western blot analysis of the protein level of EGFR; type: cell-based, human; conditions: 5 μM NAC and 1.25 μM sanguinarine
Procedure: (§1) Cells were lysed in RIPA lysis buffer with protease and phosphatase inhibitors added for total whole cell protein extraction. The concentration of the total protein extract was determined by Bio-Rad DCTM protein assay kit (Bio-Rad). Then samples were loaded and separated onto a 10% SDS-PAGE gel and then the separated proteins were transferred to a Nitrocellulose (NC) membrane. Membranes were blocked with 5% milk without fat in TBST for 1 hour at room temperature. Primary antibodies (1:1000 dilutions for Cell Signaling antibodies; 1:500 dilutions for Santa Cruz antibodies) were added and incubated overnight at 4° C. On the other day, membrane was washed by TBST for three times (5 mins/wash), while secondary fluorescent antibody (1:10000 dilutions) was added to membrane and incubated at room temperature for 1 hr. Actin was used as loading control and for normalization. The signal intensity of the membranes was detected by Odessy (LI-COR).
In Example 3, the protein level of EGFR after sanguinarine treatment with difference dosage and duration was analyzed.

[4] = test system: JNK, p38; test: Western blot of phosphorylation of JNK and p38; type: cell-based, human; conditions: 5 μM NAC and 1.25 μM sanguinarine
Procedure: as §1
ROS intensity was increased with the increase of sanguinarine treatment time. Sanguinarine-induced apoptosis in H1975 cells, in which the cells were pre-treated with 5 μM NAC and a ROS generation inhibitor, was also studied. […] Also, P-EGFR 1045 as shown in FIG. 6 is a tyrosine(Y) phosphorylation site of EGFR at amino acid position 1045 (Y1045) and phosphorylation of this site will lead to activation of EGFR degradation after cbl docking to this site

Structure (SMILES): C[n+]1cc2c3c(ccc2c2ccc4cc5c(cc4c21)OCO5)OCO3 [sanguinarine]
- more cell debris than control ([1]; H1975, 1.25 μM, 24 hrs): 20%
- increase in early stage of apoptosis compared with the control group ([1]; H1975, 1.25 μM, 24 hrs, early stage (Q3)): 7.2 fold

Structure (SMILES): COc1cc2ncnc(Nc3ccc(F)c(Cl)c3)c2cc1OCCCN1CCOCC1 [Gefitinib]
- Gefitinib Sensitivity [2]: Resistant

Structure (SMILES): CC(=O)N[C@@H](CS)C(=O)O [NAC]
- EGFR degradation induced by sanguinarine [3]: block
- apoptosis induced by sanguinarine after NAC pre-treatment ([1]; H1975, pre-treated with 5 μM NAC, sanguinarine): completely blocked
- phosphorylation of JNK, p38 induced by sanguinarine [4]: block
